Assay: xn = mol fraction of the nth substance listed
Details: 100 kPa

CC[n+]1ccn(C)c1.O=S(=O)([O-])O + OCCO
viscosity [mPa·s]
Details | x1 = 0.125 | x1 = 0.143 | x1 = 0.167 | x1 = 0.2 | x1 = 0.25 | x1 = 0.33 | x1 = 0.5
298.15 K | 19 | 21 | 24 | 28 | 35 | 52 | 95
303.15 K | – | 17 | 20 | 23 | 29 | 43 | –
308.15 K | 13 | 15 | 17 | 19 | – | 35 | 62
313.15 K | 11 | – | 14 | 16 | 20 | – | 50
318.15 K | 9 | 11 | – | 14 | 18 | 25 | 42
323.15 K | 8 | 9 | 10 | 12 | 15 | – | 35
